No end group written: not given here.
System: CD4+ T-helper cells
Assay: Cytokine response by multiplex xMAP, CD4+ T-helper cells
Type: cell-based, human
Details: 2 µM, 24 h
Protocol: Colorectal adenocarcinoma Caco-2 cell line (ATCC HTB-37) was cultured in complete DMEM/F12 (1:1) medium containing 10% fetal bovine serum (FBS, Gibco) and 1X antibiotic-antimycotic solution (1XAAS, Invitrogen, Waltham, MA, USA). The acute monocytic leukemia THP-1 line (ATCC TIB-202) was cultured in complete RPMI-1640 medium, containing 10% FBS, 1XAAS, and […]. THP-1 cells were differentiated into pro-inflammatory macrophages (Mφ1) with phorbol 12-myristate 13-acetate (Sigma-Aldrich) for 24 h and subsequently polarized with lipopolysaccharide from E. coli (Sigma-Aldrich) and rhIFN-γ (Sigma-Aldrich) for another 48 h according to previously reported protocol. All cells were cultured in a humidified CO2 incubator (5% CO2, 37 °C). Primary peripheral blood mononuclear cells (PBMCs) collected from a healthy donor were purchased from American Type Culture Collection (ATCC PCS-800-011). CD4^+ T-helper and CD8^+ T cytotoxic cells were isolated from PBMCs by magnetic separation with mouse anti-human CD4-PE (clone 13B8.2, Beckman Coulter Diagnostics, Pasadena, CA, USA) and CD8-PE (clone REA734, Miltenyi Biotec, Bergisch Gladbach, Germany), Anti-PE MicroBeads (Miltenyi Biotec), and LS Separation Columns (Miltenyi Biotec). Isolated CD4^+ and CD8^+ cells were expanded separately with Dynabeads™ Human T-Expander CD3/CD28 (Gibco, Waltham, MA, USA) in RPMI-1640 supplemented with 10% FBS, 1XAAS and 100 U/mL rh-IL-2 (Gibco). Regulatory CD4^+ FoxP3^+ T cells (Tregs) were isolated from PBMCs by magnetic separation with CD4^+CD25^+ Regulatory T Cell Isolation Kit, human (Miltenyi Biotec). Primary CD14^+ blood monocytes were isolated from PBMCs by adherence according to standard technique. Monocyte-derived mature dendritic cells (moDCs) were obtained from CD14^+ blood monocytes according to the previously reported protocol. Briefly, blood monocytes were incubated in complete RPMI-1640 medium, containing 10% FBS, 1XAAS, 800 U/mL rhGM-CSF (Sci-Store, Russia, Moscow) and 500 U/mL rhIL-4 (Sci-Store) for 3 days. Fresh complete RPMI-1640 medium with rhGM-CSF and rhIL-4 was added to the culture on day 3. On day 5, fresh complete RPMI-1640 containing 100 U/mL rhTNF-α (Sigma) as well as 800 U/mL rhGM-CSF and 500 U/mL rhIL-4 was added and the culture was incubated for another 4 days until full maturation.
Caco-2 cells were seeded into the wells of a 48-well plate, coated with 0.1% bovine collagen (Sigma-Aldrich) for 24 h, 3 weeks before the experiment with complete DMEM/F12 (1:1) medium renewal every 2–3 days. Monocytes, moDCs, CD4^+ T-helper and CD8^+ T cytotoxic cells, Mφ1, and Regulatory CD4^+ FoxP3^+ T cells were seeded into the wells of 48-well plates in the complete RPMI-1640 medium supplemented with 10% Human AB serum (HABS, Capricorn Scientific, Ebsdorfergrund, Germany) and 1XAAS 24 h prior to the experiment; medium in Caco-2-containing wells was also replaced with the same medium. After 24 h, half of the medium in each well was replaced by fresh complete RPMI-1640 medium with 10% HABS, supplemented with 4 µM of Lc-def for the sample wells or fresh medium alone for the control wells. Cell cultures were kept in CO2-incubator (5% CO2, 37 °C) for another 24 h. Culture supernatants were collected 24 h later and stored at −70 °C degrees less than one month prior to the analytes assessment. […]

Lc-def: defensin from lentil Lens culinaris seeds (UniProt:B3F051), recombinant, overexpressed in Escherichia coli (KTCENLSDSFKGPCIPDGNCNKHCKEKEHLLSGRCRDDFRCWCTRNC; disulfide (positions not given here); ends not checked; also: disulfide bonds present, pairing not given here; UniProt B3F051 28-74, looked up)
EGF: <1.95↓ pg/ml | Eotaxin: <3.23↓ pg/ml | FGF-2: 0 pg/mL | FLT-3L: <0.45↓ pg/ml | Fractalkine: <23.19↓ pg/ml | G-CSF: <2.57↓ pg/ml | GM-CSF: <1.36↓ pg/ml | GROa: <0.67↓ pg/ml | IFNa2: <4.43↓ pg/ml | IFNg: <1.99↓ pg/ml | IL-1RA: <0.83↓ pg/ml | IL-1a: 8.24 pg/mL | IL-1b: <18.72↓ pg/ml | IL-2: <0.31↓ pg/ml | IL-3: <0.48↓ pg/ml | IL-4: <0.31↓ pg/ml | IL-5: 0.97 pg/mL | IL-6: <0.30↓ pg/ml | IL-7: <0.33↓ pg/ml | IL-8: <0.49↓ pg/ml | IL-9: <1.05↓ pg/ml | IL-10: <0.68↓ pg/ml | IL-12 (p40): <3.02↓ pg/ml | IL-12 (p70): <1.48↓ pg/ml | IL-13: <5.00↓ pg/ml | IL-15: <1.45↓ pg/ml | IL-17A: <1.55↓ pg/ml | IL-17E/IL-25: <20.59↓ pg/ml | IL-17F: <16.96↓ pg/ml | IL-18: <0.35↓ pg/ml | IL-22: <8.31↓ pg/ml | IL-27: <8.55↓ pg/ml | IP-10: <1.56↓ pg/ml | M-GSF: <23.75↓ pg/ml | MCP-1: <1.52↓ pg/ml | MCP-3: <3.95↓ pg/ml | MDC: <0.35↓ pg/ml | MIG: <3.43↓ pg/ml | MIP-1a: 7.47 pg/mL | MIP-1b: 3.99 pg/mL | PDGF-AA: <7.38↓ pg/ml | PDGF-AB/BB: <9.75↓ pg/ml | RANTES: 236.88 pg/mL | TGF-a: <0.66↓ pg/ml | TNFa: <3.91↓ pg/ml | TNFb: <0.73↓ pg/ml | VEGFa: <1.27↓ pg/ml | effects on cytokine production: No effects | sCD40L: <6.66↓ pg/ml

— article PMC9503459, “Antifungal Activity, Structural Stability, and Immunomodulatory Effects on Human Immune Cells of Defensin from the Lentil Lens culinaris” (Membranes, 2022)
